Assay results reported in US11459330B2, “Substituted bicyclic heterocyclic compounds as PRMT5 inhibitors” (LUPIN LIMITED, priority 2017, dated 2022).

Columns and labels:
PRMT5:MEP50 = PRMT5:MEP50 (Homo sapiens, UniProt O14744); test: PRMT5 biochemical HTRF assay (Biochemical Assay Protocol 1 / 2); details: biotinylated H4R3 substrate, 1 μM SAM, protocol 1 or 2 not given, activity range 300 pM to 950 pM, read-out: IC50 (PRMT5 inhibition), activity range
Procedure: Biochemical Assay Protocol 1
(§1) Inhibitory effect of compounds on PRMT5 was assessed using HTRF detection technology in biochemical assay. Biotinylated H4R3 (residues 1-21) was used as a substrate. Compounds were pre-incubated with 15-25 ng PRMT5:MEP50 per well of a 384-well plate for 30 min at room temperature in the assay buffer containing 20 mM Bicine, pH 7.6, 25 mM NaCl, 2 mM DTT, 0.01% Chicken albumin and 0.01% Tween-20. Reaction was initiated by adding 1 μM of SAM and 50 nM biotinylated H4R3. Total assay volume was 15 μL. Reaction was continued for 120 min at room temperature. Then detection solution containing Streptavidin-Eu cryptate, anti-rabbit IgG-XL-665, Histone H4R3 Dimethyl Symmetric (H4R3me2s) Polyclonal Antibody, all prepared in HTRF detection buffer was added and further incubated for 30 min at room temperature. HTRF signal was recorded in PHERAStar microplate reader. Ratio of signal obtained at 665 nm and 620 nm was used to compute the percent inhibition of compound as follows % Inhibition=100−((Test Ratio−Negative control Ratio)/(Positive control Ratio−Negative control Ratio)*100) where Positive control=PRMT5+SAM+H4R3 Negative control=PRMT5+H4R3 Biochemical Assay Protocol 2
as §1, with “2.5” for “15-25”, “4 h” for “120 min”, “control=PRMT5+H4R3” for “control=PRMT5+H4R3 Biochemical Assay Protocol 2”

PANC-1 cells = test: Anti-cancer assay (Panc-1), cell viability CellTiterGlo; assay type: cell-based; details: Homo sapiens, PANC-1, 168 h, 7 days
Procedure: Anticancer Activity Assay
Z-138 cells were seeded at a density of 2000-3000 cells per well in culture media (IMDM+10% FBS). PANC-1 (ATCC, CRL-1469™) and MIA PaCa-2 (ATCC, CRL-1420™) cells were seeded at a density of 200-300 cells per well in culture media (DMEM+10% FBS). Cells were seeded in opaque, flat bottomed tissue culture grade 96-well plates and Z-138 cells (suspension) were seeded and treated on the same day with various concentrations of test compounds. PANC-1 and MIA PaCa-2 cells, being adherent, were kept for overnight settlement at standard cell culture conditions (37° C., 5% CO2). On the following day, cells were treated with various concentrations of test compounds. Cells were treated with test compounds for a period of 96 h, 7 days and 10 days, for Z-138 cells, PANC-1 cells and MIA PaCa-2 cells, respectively. Cell viability was assessed using CellTiterGlo™ (Promega, USA) as per manufacturer's instructions. Relative Light Units (RLU) were read in Synergy™ 2 reader (Biotek, USA). The assay measures cellular ATP as an indicator of cell viability. RLU is proportional to the number of viable cells in the respective well.
% inhibition of cell viability was calculated relative to the vehicle control samples containing media with 0.1% DMSO alone as per the formula below. (Avg. of Untreated Control−Avg. of Test)×100 Avg. of Untreated Control
The IC50 values of individual compounds were calculated with Non Linear Regression Analysis using Graph Pad Prism (Graph Pad software, Inc, USA).
Anti-Cancer Assay (Panc-1)

[1] = activity range, lower bound in pM, upper bound in nM

PRMT5:MEP50, sequence (O14744 whole entry): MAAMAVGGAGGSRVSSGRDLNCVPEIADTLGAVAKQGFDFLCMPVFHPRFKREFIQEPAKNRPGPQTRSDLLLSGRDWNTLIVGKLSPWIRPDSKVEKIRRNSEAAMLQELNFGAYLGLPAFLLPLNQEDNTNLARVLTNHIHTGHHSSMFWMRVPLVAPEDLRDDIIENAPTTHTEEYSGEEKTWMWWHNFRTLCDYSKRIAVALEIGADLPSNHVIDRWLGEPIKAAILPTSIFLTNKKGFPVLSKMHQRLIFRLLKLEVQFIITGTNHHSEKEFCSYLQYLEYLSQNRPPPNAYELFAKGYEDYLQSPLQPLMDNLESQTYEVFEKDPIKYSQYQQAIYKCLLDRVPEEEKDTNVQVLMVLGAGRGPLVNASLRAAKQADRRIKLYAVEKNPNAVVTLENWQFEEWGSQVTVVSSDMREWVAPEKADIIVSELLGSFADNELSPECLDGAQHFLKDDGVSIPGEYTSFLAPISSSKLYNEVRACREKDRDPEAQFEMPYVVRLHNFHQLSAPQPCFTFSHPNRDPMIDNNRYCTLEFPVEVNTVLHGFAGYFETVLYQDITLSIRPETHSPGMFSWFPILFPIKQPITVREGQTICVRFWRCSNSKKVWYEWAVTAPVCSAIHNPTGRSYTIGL
PRMT5:MEP50, sequence (Q9BQA1 whole entry partner): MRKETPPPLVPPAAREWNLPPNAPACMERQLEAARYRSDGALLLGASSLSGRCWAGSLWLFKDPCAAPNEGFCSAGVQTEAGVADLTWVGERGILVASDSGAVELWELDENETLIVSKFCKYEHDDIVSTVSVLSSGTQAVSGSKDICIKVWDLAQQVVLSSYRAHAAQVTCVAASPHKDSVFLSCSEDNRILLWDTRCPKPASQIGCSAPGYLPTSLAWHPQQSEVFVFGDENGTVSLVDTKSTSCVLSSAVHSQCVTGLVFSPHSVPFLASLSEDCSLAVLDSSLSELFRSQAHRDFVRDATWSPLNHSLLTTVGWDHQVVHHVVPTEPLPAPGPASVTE

Structure (SMILES) | IC50 (PRMT5:MEP50) | IC50 (PANC-1 cells; [1]) | IC50 (PANC-1 cells; activity range 20 nM to 100 nM)
Nc1nc2cc(OCC3=C[C@@H](n4ccc5c(N)ncnc54)[C@H](O)[C@@H]3O)cc(F)c2cc1Cl [Compound-18, (1S,2R,5R)-3-(((2-amino-3-chloro-5-fluoroquinolin-7-yl)oxy)methyl)-5-(4-amino-7H-pyrrolo[2,3-d]pyrimidin-7-yl)cyclopent-3-ene-1,2-diol] | 0.3 to 0.95 nM | 300 to 20000 pM | –
CC(Cc1cc(F)c2cc(Br)c(N)nc2c1)C1=C[C@@H](n2ccc3c(N)ncnc32)[C@H](O)[C@@H]1O (single isomer, unassigned) [Compound-45a] | 0.3 to 0.95 nM | – | –
C[C@@]1(O)C(CCc2cc(F)c3cc(Cl)c(N)nc3c2)=C[C@@H](n2ccc3c(N)ncnc32)[C@@H]1O [Compound-37, (1S,2R,5R)-3-(2-(2-amino-3-chloro-5-fluoroquinolin-7-yl)ethyl)-5-(4-amino-7H-pyrrolo[2,3-d]pyrimidin-7-yl)-2-methylcyclopent-3-ene-1,2-diol] | 0.3 to 0.95 nM | 300 to 20000 pM | –
Nc1ccc2c(F)cc(CCC3=C[C@@H](n4ccc5c(N)ncnc54)[C@H](O)[C@@H]3O)cc2n1 [Compound-47, (1S,2R,5R)-3-(2-(2-amino-5-fluoroquinolin-7-yl)ethyl)-5-(4-amino-7H-pyrrolo[2,3-d]pyrimidin-7-yl)cyclopent-3-ene-1,2-diol] | 0.3 to 0.95 nM | 300 to 20000 pM | –
CCc1ncnc2c1ccn2[C@@H]1C=C(CCc2cc(F)c3cc(Cl)c(N)nc3c2)[C@@H](O)[C@H]1O [Compound-41, (1S,2R,5R)-3-(2-(2-amino-3-chloro-5-fluoroquinolin-7-yl)ethyl)-5-(4-ethyl-7H-pyrrolo[2,3-d]pyrimidin-7-yl)cyclopent-3-ene-1,2-diol] | – | 300 to 20000 pM | –
Nc1nc2cc(CC[C@@]34C[C@@H]3[C@@H](n3ccc5c(N)ncnc53)[C@H](O)[C@@H]4O)ccc2cc1Cl [Compound-61, (1R,2R,3S,4R,5S)-1-(2-(2-Amino-3-chloroquinolin-7-yl)ethyl)-4-(4-amino-7H-pyrrolo[2,3-d]pyrimidin-7-yl)bicyclo[3.1.0]hexane-2,3-diol] | 0.3 to 0.95 nM | 300 to 20000 pM | –
CC(Cc1ccc2cc(Br)c(N)nc2c1)C1=C[C@@H](n2ccc3c(N)ncnc32)[C@H](O)[C@@H]1O (single isomer, unassigned) [Compound-7a] | 0.3 to 0.95 nM | 300 to 20000 pM | –
CC(Cc1ccc2cc(Br)c(N)nc2c1)[C@@]12C[C@@H]1[C@@H](n1ccc3c(N)ncnc31)[C@H](O)[C@@H]2O (stereo partly drawn) [76b, (1S,2R,3S,4R,5S)-1-((S)-1-(2-Amino-3-bromoquinolin-7-yl)propan-2-yl)-4-(4-amino-7H-pyrrolo[2,3-d]pyrimidin-7-yl)bicyclo[3.1.0]hexane-2,3-diol] | – | – | 20000 to 100000 pM
Cc1ncnc2c1ccn2[C@@H]1C=C(C(C)Cc2cc(F)c3cc(Cl)c(N)nc3c2)[C@@](C)(O)[C@H]1O (single isomer, unassigned) [Compound-36a] | 0.3 to 0.95 nM | – | –
Cc1cc2ccc(CC[C@@]34C[C@@H]3[C@@H](n3ccc5c(N)ncnc53)[C@H](O)[C@@H]4O)cc2nc1N [Compound-54, (1R,2R,3S,4R,5S)-1-(2-(2-Amino-3-methylquinolin-7-yl)ethyl)-4-(4-amino-7H-pyrrolo[2,3-d]pyrimidin-7-yl) bicyclo[3.1.0]hexane-2,3-diol] | – | 300 to 20000 pM | –
Nc1ncc2ccn([C@@H]3C=C(CCc4ccc5cc(Cl)c(N)nc5c4)[C@@H](O)[C@H]3O)c2n1 [Compound-30, (1S,2R,5R)-3-(2-(2-amino-3-chloroquinolin-7-yl)ethyl)-5-(2-amino-7H-pyrrolo[2,3-d]pyrimidin-7-yl)cyclopent-3-ene-1,2-diol] | – | 300 to 20000 pM | –
Nc1nc2cc(CCC3=C[C@@H](n4ccc5c(N)ncnc54)[C@H](O)[C@@H]3O)cc(Cl)c2cc1Cl [Compound-29, (1S,2R,5R)-3-(2-(2-amino-3,5-dichloroquinolin-7-yl)ethyl)-5-(4-amino-7H-pyrrolo[2,3-d]pyrimidin-7-yl)cyclopent-3-ene-1,2-diol] | – | – | 20000 to 100000 pM
CC[C@@]1(O)C(CCc2cc(F)c3cc(Cl)c(N)nc3c2)=C[C@@H](n2ccc3c(N)ncnc32)[C@@H]1O [Compound-40, (1S,2R,5R)-3-(2-(2-amino-3-chloro-5-fluoroquinolin-7-yl)ethyl)-5-(4-amino-7H-pyrrolo[2,3-d]pyrimidin-7-yl)-2-ethylcyclopent-3-ene-1,2-diol] | – | 300 to 20000 pM | –
CC(Cc1ccc2cc(Cl)c(N)nc2c1)C1=C[C@@H](n2ccc3c(N)ncnc32)[C@H](O)[C@@H]1O (single isomer, unassigned) [Compound-34b] | 0.3 to 0.95 nM | 300 to 20000 pM | –
Nc1nc2cc(CCC3=C[C@@H](n4ccc5cnccc54)[C@H](O)[C@@H]3O)cc(F)c2cc1Cl [Compound-15, (1S,2R,5R)-3-(2-(2-Amino-3-chloro-5-fluoroquinolin-7-yl)ethyl)-5-(1H-pyrrolo[3,2-c]pyridin-1-yl)cyclopent-3-ene-1,2-diol] | 0.3 to 0.95 nM | – | –
Cc1ncnc2c1ccn2[C@@H]1C=C(CCc2cc(F)c3cc(Br)c(N)nc3c2)[C@@H](O)[C@H]1O [Compound-44, (1S,2R,5R)-3-(2-(2-Amino-3-bromo-5-fluoroquinolin-7-yl)ethyl)-5-(4-methyl-7H-pyrrolo[2,3-d]pyrimidin-7-yl)cyclopent-3-ene-1,2-diol] | 0.3 to 0.95 nM | – | –
Nc1ccc2cc(F)c(CCC3=C[C@@H](n4ccc5c(N)ncnc54)[C@H](O)[C@@H]3O)cc2n1 [Compound-46, (1S,2R,5R)-3-(2-(2-Amino-6-fluoroquinolin-7-yl)ethyl)-5-(4-amino-7H-pyrrolo[2,3-d]pyrimidin-7-yl)cyclopent-3-ene-1,2-diol] | – | 300 to 20000 pM | –
Nc1nc2cc(CCC3=C[C@@H](n4ccc5c(N)ncnc54)[C@H](O)[C@@H]3O)cc(F)c2cc1Br [Compound-43, (1S,2R,5R)-3-(2-(2-Amino-3-bromo-5-fluoroquinolin-7-yl)ethyl)-5-(4-amino-7H-pyrrolo[2,3-d]pyrimidin-7-yl)cyclopent-3-ene-1,2-diol] | 0.3 to 0.95 nM | 300 to 20000 pM | –
Cc1ncnc2c1ccn2[C@@H]1C=C(C(C)Cc2cc(F)c3cc(Cl)c(N)nc3c2)[C@@H](O)[C@H]1O (single isomer, unassigned) [Compound-35a] | – | 300 to 20000 pM | –
Nc1nc2cc(CCC3=C[C@@H](n4ccc5c(N)ncnc54)[C@H](O)[C@@H]3O)ccc2cc1Cl [Compound-2, (1S,2R,5R)-3-(2-(2-amino-3-chloroquinolin-7-yl)ethyl)-5-(4-amino-7H-pyrrolo[2,3-d]pyrimidin-7-yl)cyclopent-3-ene-1,2-diol] | 0.3 to 0.95 nM | 300 to 20000 pM | –
CC(Cc1cc(F)c2cc(Cl)c(N)nc2c1)C1=C[C@@H](n2ccc3c(N)ncnc32)[C@H](O)[C@]1(C)O (stereo partly drawn) [Compound-38, (1S,2R,5R)-3-(1-(2-amino-3-chloro-5-fluoroquinolin-7-yl)propan-2-yl)-5-(4-amino-7H-pyrrolo[2,3-d]pyrimidin-7-yl)-2-methylcyclopent-3-ene-1,2-diol] | 0.3 to 0.95 nM | 300 to 20000 pM | –
Nc1nc2cc(CCC3=C[C@@H](n4ccc5c(N)ncnc54)[C@H](O)[C@@H]3O)ccc2cc1F [Compound-23, (1S,2R,5R)-3-(2-(2-Amino-3-fluoroquinolin-7-yl)ethyl)-5-(4-amino-7H-pyrrolo[2,3-d]pyrimidin-7-yl)cyclopent-3-ene-1,2-diol] | 0.3 to 0.95 nM | – | –
